The values that follow come from patent US8697683B2, “Azetidinyl diamides as monoacylglycerol lipase inhibitors” (Janssen Pharmaceutica, NV, priority 2009, dated 2014).

Assay [1] addresses T1, mutant MGL (Homo sapiens, UniProt Q99685, L169S/L176S).
T1 sequence (Q99685 1-303 L169S/L176S): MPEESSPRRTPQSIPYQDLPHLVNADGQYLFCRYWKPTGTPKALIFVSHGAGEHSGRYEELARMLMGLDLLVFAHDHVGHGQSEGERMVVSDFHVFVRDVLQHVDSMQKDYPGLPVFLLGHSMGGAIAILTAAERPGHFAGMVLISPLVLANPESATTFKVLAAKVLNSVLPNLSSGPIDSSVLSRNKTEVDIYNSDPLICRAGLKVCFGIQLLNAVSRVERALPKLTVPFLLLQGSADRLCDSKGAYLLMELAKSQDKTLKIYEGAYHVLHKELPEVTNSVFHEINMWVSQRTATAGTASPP
Nature of the assay: MGL ThermoFluor Assay-Mutant.
Experimental: The ThermoFluor (TF) assay is a 384-well plate-based binding assay that measures thermal stability of proteins^1,2. […] TF dye used in all experiments was 1,8-ANS (Invitrogen: A-47). Final TF assay conditions used for MGL studies were 0.07 mg/ml of mutant MGL, 100 μM ANS, 200 mM NaCl, 0.001% Tween-20 in 50 mM PIPES (pH=7.0).
Screening compound plates contained 100% DMSO compound solutions at a single concentration. […] Columns 12 and 24 were used as DMSO reference and contained no compound. […] Following compound dispension, protein and dye solutions were added to achieve the final assay volume of 3 μL.
Bar-coded assay plates were robotically loaded onto a thermostatically controlled PCR-type thermal block and then heated from 40 to 90° C. degrees at a ramp-rate of 1° C./min for all experiments. Fluorescence was measured by continuous illumination with UV light (Hamamatsu LC6), supplied via fiber optics and filtered through a band-pass filter (380-400 nm; >60D cutoff). Fluorescence emission of the entire 384-well plate was detected by measuring light intensity using a CCD camera (Sensys, Roper Scientific) filtered to detect 500±25 nm, resulting in simultaneous and independent readings of all 384 wells. A single image with 20-sec exposure time was collected at each temperature, and the sum of the pixel intensity in a given area of the assay plate was recorded vs temperature and fit to standard equations to yield the Tm^1. • 1.
For some experiments, quantitative NMR spectroscopy (qNMR) was used to measure concentration of the initial 100% DMSO compound solutions and, using the same fitting method, qKd values were determined

The target of assay [2] is T2, purified wild type MGL (wt-MGLL 6H-11-313) (Homo sapiens, UniProt Q99685).
T2 sequence (Q99685 1-303): T1 sequence (Q99685 1-303 L169S/L176S) with S169L, S176L

Assay [3] concerns CFA-induced thermal hypersensitivity. Nature of the assay: CFA-Induced Paw Radiant Heat Hypersensitivity. In kind it is in vivo. Particulars: rat, 30 mg/kg p.o., HPβCD vehicle; for Method 1: peak % reversal: group mean values, maximum at any time point up to 180 or 300 min. The procedure: A radiant thermal stimulus (beam of light) was then focused through the glass onto the plantar surface of each hind paw in turn. […] An initial (baseline) response latency to the thermal stimulus was recorded for each animal prior to the injection of complete Freund's adjuvant (CFA). 24 h following intraplantar CFA injection, the response latency of the animal to the thermal stimulus was then re-evaluated and compared to the animal's baseline response time. […] Immediately following the post-CFA latency assessment, the indicated test compound or vehicle was administered orally. […] More specifically: For all compounds, the % R of hypersensitivity was calculated using the mean value for groups of animals at each time point according to the following formula: % reversal=[(group treatment response−group CFA response)/(group baseline response−group CFA response)]×100 Results are given for the maximum % reversal observed for each compound at any time point tested. For some compounds, the % R of hypersensitivity was calculated separately for each animal according to the following formula: % reversal=[(individual treatment response−individual CFA response)/(individual baseline response−individual CFA response)]×100. Results are given as a mean of the maximum % reversal values calculated for each individual animal.

Assay [4] addresses T3, MGL (Rattus norvegicus, UniProt Q8R431).
T3 construct: one g rat brain was homogenized
T3 sequence (Q8R431 1-303): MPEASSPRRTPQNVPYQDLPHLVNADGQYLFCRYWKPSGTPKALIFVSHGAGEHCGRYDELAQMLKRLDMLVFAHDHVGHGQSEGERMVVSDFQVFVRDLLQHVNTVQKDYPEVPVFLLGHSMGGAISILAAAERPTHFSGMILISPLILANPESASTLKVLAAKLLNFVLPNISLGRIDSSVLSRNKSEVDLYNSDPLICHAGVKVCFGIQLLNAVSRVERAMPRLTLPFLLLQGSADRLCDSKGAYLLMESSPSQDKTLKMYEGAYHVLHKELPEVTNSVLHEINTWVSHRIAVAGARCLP
The assay is described as follows: 2-AG Accumulation Assay (rat brain homogenate). In kind it is biochemical. Particulars: percent of vehicle 2-AG accumulation; for Rat Brain 2AG % VehCntrl (%) @1 μM: compound 1 μM; for Rat Brain 2AG % VehCntrl (%) @10 μM: compound 10 μM.

Where [5] appears, read: read-out: MGL mutant ThermoFluor qKd (μM) (using qNMR conc.), ThermoFluor, compound concentration measured by qNMR.
The mark [6] stands for this setting: read-out: MGL wild type inh IC50, substrate 4MU-B 10 μM, 37° C.
Where [7] appears, read: read-out: MGL mutant ThermoFluor Kd, 0.07 mg/ml, fit of concentration-response of Tm.
Where [8] appears, read: read-out: MGL wild type inh IC50, substrate 4MU-B 10 μM, enzyme 5 nM, 37° C.
Where [9] appears, read: read-out: MGL mutant ThermoFluor Kd, ThermoFluor thermal stability binding assay.
The mark [10] stands for this setting: read-out: MGL mutant ThermoFluor qKd (μM) (using qNMR conc.), compound concentration measured by quantitative NMR (qNMR).
The mark [11] stands for this setting: read-out: MGL wild type inh IC50, 4MU-B substrate 10 μM, 37° C.

Numbering of substitutions follows the chain as printed. Read-outs that look alike come from different tables or passages of the source. Some results are limits rather than exact numbers.

The IC50 is the midpoint of a concentration-inhibition curve.

`Cc1c(C(=O)N2CCN(C3CN(C(=O)c4nccs4)C3)CC2)n(C)c2ccc(Cl)cc12` [Cpd 762]: in assay [1] (setting [5]), the Kd turned out to be 1 µM. Besides, the 50% inhibitory concentration (IC50) in assay [2] (setting [6]) was 632 nM.

Take `O=C(c1ccccc1)N1CCN(C2CN(C(=O)c3cc4cc(Br)ccc4o3)C2)CC1` [Cpd 1492]: the Kd in assay [1] (setting [7]) was 18.8 µM. The IC50 in assay [2] (setting [8]) was > 16700 nM.

For `O=C(c1ccccc1)N1CC(N2CCN(C(=O)c3cc4cc(Cl)ccc4o3)CC2)C1` [Cpd 524], the Kd in assay [1] (setting [9]) came out at 1.67 µM. In addition, the IC50 in assay [2] (setting [6]) was 4370 nM.

`Cc1cc2nc(C(=O)N3CC(N4CCN(C(=O)c5nccs5)CC4)C3)cn2cc1Br` [Cpd 852]: in assay [1] (setting [5]), the Kd was determined as 1.98 µM. The IC50 in assay [2] (setting [8]) is 8080 nM.

Take `O=C(c1nc2cc(-c3ccc(OC(F)(F)F)cc3)ccc2[nH]1)N1CC(N2CCN(C(=O)c3nccs3)CC2)C1` [Cpd 1303]: the Kd in assay [1] (setting [10]) was 7.12 µM. Besides, in assay [2] (setting [11]), the IC50 amounted to 5110 nM.

As for `O=C(c1nccs1)N1CCN(C2CN(C(=O)c3c[nH]nc3-c3ccccc3)C2)CC1` [Cpd 1475], the Kd in assay [1] (setting [7]) was > 31.2 µM. The IC50 in assay [2] (setting [8]) is > 16700 nM.

In the case of `O=C(c1cn2cc(Cl)cc(Br)c2n1)N1CC(N2CCN(C(=O)c3nccs3)CC2)C1` [Cpd 1452], the Kd in assay [1] (setting [10]) is 5.42 µM. The IC50 in assay [2] (setting [8]) is > 16700 nM.

Regarding `O=C(c1ccc[nH]1)N1CCN(C2CN(C(=O)c3nn(-c4ccc(Cl)cc4Cl)c4c3CCCC4)C2)CC1` [Cpd 1309], the Kd in assay [1] (setting [5]) came to 6.54 µM. For the same compound, the IC50 in assay [2] (setting [6]) was determined as 9360 nM.

Turning to `O=C(c1ccc(-c2cccc(C(F)(F)F)c2)c(Cl)c1)N1CC(N2CCN(C(=O)c3cscn3)CC2)C1` [Cpd 1102], in assay [3], the “Method 1: peak % reversal” value was determined as 38%. The “Method 2: peak % reversal” value in assay [3] (mean of individual animal maximum values, up to 180 or 300 min) came out at 45.3%. For the same compound, the Kd in assay [1] (setting [7]) amounted to 0.006 µM. For the same compound, in assay [4], the “Rat Brain 2AG % VehCntrl (%) @1 μM” value worked out at 878%.

On to `O=C(c1nccs1)N1CCN(C2CN(C(=O)c3nn(-c4ccc(Cl)cc4Cl)c4c3CCCC4)C2)CC1` [Cpd 1267], for which the Kd in assay [1] (setting [5]) came out at 0.741 µM. Further, the IC50 in assay [2] (setting [6]) was found to be 1120 nM.

Take `O=C(c1ccccc1)N1CCN(C2CN(C(=O)c3ccc4c(ccn4-c4ccccc4)c3F)C2)CC1` [Cpd 632]: the Kd in assay [1] (setting [5]) is 0.037 µM. Also, the IC50 in assay [2] (setting [6]) came out at 281 nM.

In the case of “5-[2-(4-Chlorophenyl)-1-methyl-vinyl]-1-(2,4-dichloro-phenyl)-4-methyl-1H-pyrazole-3-carboxylic acid [Cpd 1010]”, in assay [3], the “Method 1: peak % reversal” value is recorded as 23.4%. Further, the values for the Kd in assay [1] (setting [9]) and in assay [1] (setting [5]) were 0.017 µM and 0.04 µM, respectively. For the same compound, the IC50 in assay [2] (setting [6]) is < 5 nM. Further, the “Rat Brain 2AG % VehCntrl (%) @1 μM” value in assay [4] turned out to be 1953%.

As to `O=C(c1ccc(-c2ccc(Cl)cc2)[nH]1)N1CC(N2CCN(C(=O)c3nccs3)CC2)C1` [Cpd 1307], in assay [1] (setting [9]), the Kd is 4.21 µM. Also, the 50% inhibitory concentration (IC50) in assay [2] (setting [8]) came to 8780 nM.

For the compound `O=C(c1cc2cc(Br)ccc2o1)N1CC(N2CCN(C(=O)c3nccs3)CC2)C1` [Cpd 812], the Kd in assay [1] (setting [7]) is 0.644 µM. Further, the IC50 in assay [2] (setting [8]) stood at 2190 nM.

With `O=C(c1ccc(SCc2cccc(C(F)(F)F)c2)cc1)N1CC(N2CCN(C(=O)c3cscn3)CC2)C1` [Cpd 975], in assay [1] (setting [9]), the Kd was 2 µM. Also, the concentration for half-maximal inhibition (IC50) in assay [2] (setting [11]) was determined as 162 nM.

As to `O=C(c1ccccc1)N1CCN(C2CN(C(=O)c3ccc(Oc4cccc(F)n4)cc3)C2)CC1` [Cpd 522], the Kd in assay [1] (setting [9]) turned out to be 4.71 µM. Moreover, the half-inhibitory concentration (IC50) in assay [2] (setting [11]) was determined as 2680 nM.

Consider `O=C(c1ccc(Oc2cccc(Cl)c2)nc1)N1CC(N2CCN(C(=O)c3cscn3)CC2)C1` [Cpd 803], for which the Kd in assay [1] (setting [9]) was 2.13 µM. For the same compound, the concentration for half-maximal inhibition (IC50) in assay [2] (setting [6]) came out at 1870 nM.

As for `Cc1sc(C(=O)N2CC(N3CCN(C(=O)c4nccs4)CC3)C2)cc1Br` [Cpd 745], the Kd in assay [1] (setting [10]) turned out to be 0.283 µM. In addition, in assay [2] (setting [8]), the 50% inhibitory concentration (IC50) stood at 342 nM.

As for `O=C(c1ccc(-c2ccccc2)cc1)N1CC(N2CCN(C(=O)c3ccccc3)CC23CC3)C1` [Cpd 1499], in assay [2] (setting [8]), the IC50 is > 16700 nM.

Take `COc1ccc(-c2cccc(C(=O)N3CC(N4CCN(C(=O)c5cscn5)CC4)C3)c2)cc1` [Cpd 1250]: the Kd in assay [1] (setting [9]) is 2 µM. Further, in assay [2] (setting [6]), the IC50 was 638 nM.

For `COc1cncc(Oc2ccc(C(=O)N3CC(N4CCN(C(=O)c5ccccc5)CC4)C3)cc2)c1` [Cpd 533], the Kd in assay [1] (setting [9]) worked out at 10 µM.

With `O=C(c1nccs1)N1CCN(C2CN(C(=O)c3cccc4c3CN(c3ccccc3)CC4)C2)CC1` [Cpd 805], the Kd in assay [1] (setting [7]) is 6.41 µM. For the same compound, in assay [2] (setting [11]), the concentration for half-maximal inhibition (IC50) was 2000 nM.

Regarding `Cn1nccc1-c1ccc2cc(C(=O)N3CC(N4CCN(C(=O)c5nccs5)CC4)C3)[nH]c2c1` [Cpd 1241], the Kd in assay [1] (setting [10]) was 0.638 µM. Further, the 50% inhibitory concentration (IC50) in assay [2] (setting [11]) amounted to 460 nM.

As for `O=C(c1nccs1)N1CCN(C2CN(C(=O)c3cccc4nc(-c5ccccc5)[nH]c34)C2)CC1` [Cpd 1255], in assay [1] (setting [7]), the Kd worked out at 0.048 µM. Moreover, the IC50 in assay [2] (setting [11]) stood at 769 nM. The “Rat Brain 2AG % VehCntrl (%) @1 μM” value in assay [4] is reported as 147%.

Turning to `O=C(c1ccc(-c2nc(-c3ccccc3Cl)cs2)cc1)N1CC(N2CCN(C(=O)c3nccs3)CC2)C1` [Cpd 1328], the “Rat Brain 2AG % VehCntrl (%) @1 μM” value in assay [4] is on record as 1086%.

For the compound `O=C(c1ccc(OCc2cccc(Br)n2)cc1)N1CC(N2CCN(C(=O)C(F)(F)F)CC2)C1` [Cpd 984], in assay [1] (setting [5]), the Kd turned out to be 1.43 µM. The IC50 in assay [2] (setting [11]) came out at 2500 nM.

With `O=C(c1ccc2c(c1)CCCN2Cc1ccc(C(F)(F)F)cc1)N1CC(N2CCN(C(=O)c3nccs3)CC2)C1` [Cpd 371, 6-({3-[4-(1,3-Thiazol-2-ylcarbonyl)piperazin-1-yl]azetidin-1-yl}carbonyl)-1-(4-trifluoromethylbenzyl)-1,2,3,4-tetrahydroquinoline], the “Rat Brain 2AG % VehCntrl (%) @1 μM” value in assay [4] is listed as 1138%.

Regarding `O=C(c1ccccc1)N1CCN(C2CN(C(=O)c3ccc4c(c3)c(F)cn4-c3ccccc3)C2)CC1` [Cpd 589], in assay [2] (setting [6]), the half-maximal inhibitory concentration (IC50) was found to be 146 nM.

As for `O=C(c1ccc(-c2ccc(C(F)(F)F)cc2)cc1)N1CC(N2CCN(C(=O)c3nccs3)CC2)C1` [Cpd 150, 1-(1,3-Thiazol-2-ylcarbonyl)-4-(1-{[4′-(trifluoromethyl)biphenyl-4-yl]carbonyl}azetidin-3-yl)piperazine], the “Rat Brain 2AG % VehCntrl (%) @10 μM” value in assay [4] is on record as 1104%.

On to `O=C(c1ccc(-c2cccc(C(F)(F)F)c2)cc1)N1CC(N2CCN(C(=O)c3nccs3)CC2)C1` [Cpd 237, 1-(1,3-Thiazol-2-ylcarbonyl)-4-(1-{[3′-(trifluoromethyl)biphenyl-4-yl]carbonyl}azetidin-3-yl)piperazine], for which, in assay [4], the “Rat Brain 2AG % VehCntrl (%) @1 μM” value was 1044% and the “Rat Brain 2AG % VehCntrl (%) @10 μM” value turned out to be 1182%.

As for `Cn1cc(-c2ccccc2)c2ccc(C(=O)N3CC(N4CCN(C(=O)c5nccs5)CC4)C3)cc21` [Cpd 1132, 1-Methyl-3-phenyl-6-({3-[4-(1,3-thiazol-2-ylcarbonyl)piperazin-1-yl]azetidin-1-yl}carbonyl)-1H-indole], the “Rat Brain 2AG % VehCntrl (%) @1 μM” value in assay [4] worked out at 1259%.
